Structures can show the parent of a compound that is named as a salt. Where two headings read alike, the source gives them in different places. Values belong to the molecule of their own block, whether it stands above or below them.
Experiments:
[1] = system: mice; test: Toxicity: lethal dose in mice after intraperitoneal injection; assay type: in vivo; conditions: dose causing death in 2 out of 3 mice
[2] = biological target: T1, rat cortex histamine H1 receptor (Rattus norvegicus, UniProt P31390); test: Affinity towards the histamine H1 receptor ([3H]mepyramine competitive binding); conditions: cologarithm of Ki, mean ± deviation (n=2); [3H]mepyramine 4.5×10^−9 mole/l, rat cortex membranes
T1 construct: the samples containing 0.5 mg of cortex membrane protein; from tissue; host or cells: cerebral cortex membranes of male Sprague-Dawley rats
T1 sequence (P31390 whole entry): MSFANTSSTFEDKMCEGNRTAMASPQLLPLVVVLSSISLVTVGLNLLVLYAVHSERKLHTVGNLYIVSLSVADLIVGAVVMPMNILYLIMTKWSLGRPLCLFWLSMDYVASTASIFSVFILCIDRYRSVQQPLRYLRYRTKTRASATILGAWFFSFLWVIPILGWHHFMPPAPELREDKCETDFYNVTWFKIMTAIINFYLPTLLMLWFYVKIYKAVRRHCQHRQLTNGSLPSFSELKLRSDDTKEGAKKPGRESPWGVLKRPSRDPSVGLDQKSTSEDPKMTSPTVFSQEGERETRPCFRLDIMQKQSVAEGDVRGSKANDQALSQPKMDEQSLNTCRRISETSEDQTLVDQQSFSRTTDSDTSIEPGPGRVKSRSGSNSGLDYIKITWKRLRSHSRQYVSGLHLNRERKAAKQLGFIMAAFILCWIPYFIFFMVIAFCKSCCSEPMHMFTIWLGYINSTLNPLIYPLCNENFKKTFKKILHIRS
Method: Cerebral cortexes from male Sprague-Dawley rats are homogenized in 2 ml per cortex of a 20 mM Tris-HCl buffer (pH 7.4) containing 250 mM sucrose. The homogenates are centrifuged at 30,000 g for 30 minutes at 4° C. and the centrifugation pellets are resuspended in the same fresh buffer and preserved in liquid nitrogen. […] The bound [^3H]mepyramine is separated from the free radioligand by rapid filtration of the sample through a Whatman GF/C filter, previously impregnated for at least 2 hours with a 0.1% solution of polyethyleneimine, in order to reduce the possibility of non-specific binding of the radioligand with other proteins. […] The radioactivity thereof is then measured using a β particle Tri-carb 1090 scintillation counter (Camberra-Packard, Belgium). Non-specific binding has been estimated in the presence of a 10 μM aqueous solution of cetirizine and represents 30% of the total binding. […] DE LEAN et al., Mol. Pharmacol., 21 (1982), 5-16) and their inhibition constants (Ki) are calculated by means of the CHENG and PRUSOFF equation (Y. C. CHENG and W. H. PRUSOFF, Biochem. Pharmacol., 22 (1973), 3099-3108). Table III below gives the values of pKi (cologarithm of Ki) calculated from Ki (mean value±deviation with respect to the mean (n=2)), for the compounds tested.

[3] = system: isolated guinea pig trachea; test: Peripheral antihistaminic properties: inhibition of histamine-induced contraction of isolated guinea pig trachea; conditions: mean ± standard deviation, histamine-contracted guinea pig trachea; for pA2: competitive inhibition; for pD2′: non-competitive inhibition
Method: Tracheas of Dunkin-Hartley guinea pigs of both sexes (weight: 250-500 g) are excised and cut into four fragments of three segments of cartilage each. These fragments are immersed in a Krebs-Heinseleit solution at 37° C. containing 10^−7 mole/l of atropine and 10^−5 mole/l of indomethacin and are stretched with a weight of 1 g. The solution is aerated with a current of oxygen containing 5% carbon dioxide. Each change in tension, is recorded with an isometric force indicator K 30 (from Hugo Sachs Elektronik) coupled to an amplifier and a Sanborn 7700 recorder (from Hewlett Packard). The preparation (i.e. trachea fragment) so obtained is allowed to stabilize for one hour during which the base line for the tension is readjusted if necessary.
After washing and stabilization, a cumulative curve showing the effects of histamine, as a function of its concentration (10^−6, 10^−5 and 10^−4 mole/l) is plotted as a control.
For the same preparation, four further cumulative curves showing the effects of histamine as a function of its concentration are then recorded at four increasing concentrations of each compound to be tested.
The compounds to be tested are incorporated in the medium five minutes before the histamine. Between each measurement, the preparations are washed at least four times with an interval of five minutes between each washing. Each compound is tested on at least 6 trachea fragments. When the last curve is plotted, additional concentrations of 3.2×10^−4 and 10^−3 mole/l of histamine are added in order to determine whether the antagonism is competitive or not.

[4] = system: cutaneous reaction induced by histamine; test: Inhibition of the cutaneous reaction induced by histamine in dogs; assay type: in vivo, dog; conditions: for Area of wheals: nine Beagle dogs, mean ± SD; for Wheal area as percent of reference: with respect to reference area (100%); for inhibition at 0.15 mg/kg: Canis lupus familiaris
Method: The dog is considered, among the animal species, to be the species having a sensitivity to histamine relatively close to that of man.
In this test, nine Beagle dogs are used, having an average weight of 12.6 kg and of about two years of age and of which the abdomens have been locally shaved. 50 μl of a 0.9% aqueous solution of sodium chloride, containing 10 μg/ml of histamine, is injected intradermally into the shaved area. Simultaneously, a solution of Evans blue dye (60 mg/ml in a 0.9% aqueous solution of sodium chloride), is administered by intravenous injection to each dog at a dose of 0.1 ml/kg. An allergic reaction develops at the intradermal injection site and there appears a wheal, the area of which is measured exactly 30 minutes after the two injections. This area is taken as the reference. area (100%)
The compound to be tested is then administered orally, at a dose of 0.15 mg/kg (0.32×10^−6 mole/kg). 0.5, 1.5, 3, 6, 9, 12, 24 and 32 hours after administration of the compound to be tested, new wheals are induced at different abdominal locations by injecting histamine. Each time, the area of the induced wheal is measured 30 minutes after the injection of histamine.
The antihistaminic activity of a compound on the cutaneous allergic reaction is determined by measuring the reduction in the area of the induced wheals, following administration of the compound, with respect to the area of the reference wheal, and then expressed in percent.

[5] = 0.5 hours after 0.15 mg/kg oral
[6] = 1.5 hours after 0.15 mg/kg oral

Structure (SMILES): Cc1cccc(CN2CCN(C(c3ccccc3)c3ccc(Cl)cc3)CC2)c1 (single isomer, unassigned) [C, levorotatory dihydrochloride of 1-[(4-chlorophenyl)phenylmethyl]-4-[(3-methylphenyl)methyl]piperazine]
Lethal dose [1]: >0.001 mol/kg | Ki [2]: 631 nM

Structure (SMILES): Cc1cccc(CN2CCN(C(c3ccccc3)c3ccc(Cl)cc3)CC2)c1 (single isomer, unassigned) [D, dextrorotatory dihydrochloride of 1-[(4-chlorophenyl)phenylmethyl]-4-[(3-methylphenyl)methyl]piperazine]
Lethal dose [1]: >0.001 mol/kg | Ki [2]: 63.1 nM

Structure (SMILES): CC(C)(C)c1ccc(CN2CCN(C(c3ccccc3)c3ccc(Cl)cc3)CC2)cc1 (single isomer, unassigned) [E, levorotatory dihydrochloride of 1-[(4-tert-butylphenyl)methyl]-4-[(4-chlorophenyl)phenylmethyl]piperazine]
Lethal dose [1]: 0.001 mol/kg | Ki [2]: 1260 nM

Structure (SMILES): CC(C)(C)c1ccc(CN2CCN(C(c3ccccc3)c3ccc(Cl)cc3)CC2)cc1 (single isomer, unassigned) [F, dextrorotatory dihydrochloride of 1-[(4-tert-butylphenyl)methyl]-4-[(4-chlorophenyl)phenylmethyl]piperazine]
Lethal dose [1]: >0.001 mol/kg | Ki [2]: 631 nM

Structure (SMILES): OCCOCCN1CCN(C(c2ccccc2)c2ccc(Cl)cc2)CC1 (single isomer, unassigned) [G, levorotatory dihydrochloride of 2-[2-[4-[(4-chlorophenyl)phenylmethyl]-1-piperazinyl]ethoxy]ethanol]
Lethal dose [1]: 0.0006 mol/kg | pA2 [3]: 6.5 ± 0.3 | Ki [2]: 25.1 nM

Structure (SMILES): OCCOCCN1CCN(C(c2ccccc2)c2ccc(Cl)cc2)CC1 (single isomer, unassigned) [H, dextrorotatory dihydrochloride of 2-[2-[4-[(4-chlorophenyl)phenylmethyl]-1-piperazinyl]ethoxy]ethanol]
Lethal dose [1]: 0.0006 mol/kg | pD2′ [3]: 6.7 ± 0.1 | Ki [2]: 2 nM

Structure (SMILES): OCCOCCOCCN1CCN(C(c2ccccc2)c2ccc(Cl)cc2)CC1 (single isomer, unassigned) [I, levorotatory dihydrochloride of 2-[2-[2-[4-[(4-chlorophenyl)phenylmethyl]-1-piperazinyl]ethoxy]ethoxy]ethanol]
Lethal dose [1]: 0.0001 mol/kg | pA2 [3]: 6.5 ± 0.4 | Ki [2]: 79.4 nM

Structure (SMILES): OCCOCCOCCN1CCN(C(c2ccccc2)c2ccc(Cl)cc2)CC1 (single isomer, unassigned) [J, dextrorotatory dihydrochloride of 2-[2-[2-[4-[(4-chlorophenyl)phenylmethyl]-1-piperazinyl]ethoxy]ethoxy]ethanol]
Lethal dose [1]: 0.0001 mol/kg | pD2′ [3]: 6.0 ± 0.3 | Ki [2]: 2.51 nM

Ki [2]: 3.16 nM
Structure (SMILES): COC(=O)COCCN1CCN(C(c2ccccc2)c2ccc(Cl)cc2)CC1 (single isomer, unassigned) [M, levorotatory dimaleate of methyl 2-[2-[4-[(4-chlorophenyl)phenylmethyl]-1-piperazinyl]ethoxy]acetate]

Ki [2]: 79.4 nM
Structure (SMILES): COC(=O)COCCN1CCN(C(c2ccccc2)c2ccc(Cl)cc2)CC1 (single isomer, unassigned) [N, dextrorotatory dimaleate of methyl 2-[2-[4-[(4-chlorophenyl)phenylmethyl]-1-piperazinyl]ethoxy]acetate]

Ki [2]: 39.8 nM
Structure (SMILES): O=C(O)COCCN1CCN(C(c2ccccc2)c2ccc(Cl)cc2)CC1 (single isomer, unassigned) [O, levorotatory dihydrochloride of 2-[2-[4-[(4-chlorophenyl)phenylmethyl]-1-piperazinyl]ethoxy]acetic acid]
pA2 [3]: 6.6 ± 0.3

Ki [2]: 6.31 nM
Structure (SMILES): O=C(O)COCCN1CCN(C(c2ccccc2)c2ccc(Cl)cc2)CC1 (single isomer, unassigned) [P, dextrorotatory dihydrochloride of 2-[2-[4-[(4-chlorophenyl)phenylmethyl]-1-piperazinyl]ethoxy]acetic acid]
Area of wheals [4, 5]: 65 ± 10 mm^2 | Wheal area as percent of reference [4, 5]: 85% | reduction in the area of the wheals ([4]; 30 minutes after administration, 0.15 mg/kg oral, dogs): 15% | Area of wheals [4, 6]: 44 ± 12 mm^2 | Wheal area as percent of reference [4, 6]: 58% | Area of wheals ([4]; 3 hours after 0.15 mg/kg oral): 33 ± 10 mm^2 | Wheal area as percent of reference ([4]; 3 hours after 0.15 mg/kg oral): 43% | Area of wheals ([4]; 6 hours after 0.15 mg/kg oral): 41 ± 13 mm^2 | Wheal area as percent of reference ([4]; 6 hours after 0.15 mg/kg oral): 54% | Area of wheals ([4]; 9 hours after 0.15 mg/kg oral): 41 ± 10 mm^2 | Wheal area as percent of reference ([4]; 9 hours after 0.15 mg/kg oral): 54% | Area of wheals ([4]; 12 hours after 0.15 mg/kg oral): 41 ± 10 mm^2 | Wheal area as percent of reference ([4]; 12 hours after 0.15 mg/kg oral): 54% | Area of wheals ([4]; 24 hours after 0.15 mg/kg oral): 45 ± 5 mm^2 | Wheal area as percent of reference ([4]; 24 hours after 0.15 mg/kg oral): 59% | Area of wheals ([4]; 32 hours after 0.15 mg/kg oral): 51 ± 5 mm^2 | Wheal area as percent of reference ([4]; 32 hours after 0.15 mg/kg oral): 67% | inhibition at 0.15 mg/kg ([4]; 3 h, after three hours, 0.15 mg/kg oral, dogs, read-out: Maximum inhibition (of wheal area)): 57% | inhibition at 0.15 mg/kg ([4]; after 32 hours, 0.15 mg/kg oral, dogs, read-out: inhibition (of wheal area), statistically significant): 33% | pD2′ [3]: 6.3 ± 0.2

Structure (SMILES): Clc1ccc(C(c2ccccc2)N2CCNCC2)cc1 (single isomer, unassigned; (+)) [B, (+)-1-[(4-chlorophenyl)phenylmethyl]piperazine]
pA2 [3]: 5.0 ± 0.1

Structure (SMILES): NC(=O)COCCN1CCN(C(c2ccccc2)c2ccc(Cl)cc2)CC1 (single isomer, unassigned; (+)) [Compound L, (+)-2-[2-[4-[(4-chlorophenyl)phenylmethyl]-1-piperazinyl]ethoxy]acetamide]
Lethal dose [1]: 0.001 mol/kg | pA2 [3]: 6.4 ± 0.2 | Ki [2]: 158 nM

Structure (SMILES): Clc1ccc(C(c2ccccc2)N2CCNCC2)cc1 (single isomer, unassigned; (-)) [A, (−)-1-[(4-chlorophenyl)phenylmethyl]piperazine]
pA2 [3]: 5.7 ± 0.4

Structure (SMILES): NC(=O)COCCN1CCN(C(c2ccccc2)c2ccc(Cl)cc2)CC1 (single isomer, unassigned; (-)) [K, (−)-2-[2-[4-[(4-chlorophenyl)phenylmethyl]-1-piperazinyl]ethoxy]acetamide]
Lethal dose [1]: 0.0003 mol/kg | pD2′ [3]: 6.3 ± 0.2 | Ki [2]: 2.51 nM

Reference: patent US6436942B1, “Enantiomers of 1[(4-chloro-phenyl) phenylmethyl]-4-[(4-methylphenyl) sulfony]piperazine” (UCB, S.A., priority 1993, dated 2002)
